Measurements as given in US3941777A, “Compounds having juvenile hormone activity” (A/S Cheminova, priority 1973, dated 1976).
In brackets after ≈: the same amount, converted by molar mass.

Columns and labels:
[1] = test system: Tenebrio molitor L.; assay: Tenebrio test: topical application to pupae, inhibition of adult characters; format: in vivo; details: topical in acetone to abdomen of 0.5 to 2 hours old pupae; 27°C, 70% RH; ecdysis 5 to 7 days later; perfect adult 0%, perfect second pupa 100%
Experimental: The biological tests are examplified by tests on Tenebrio molitor L., Galleria mellonella L. and Culex pipiens L. Tenebrio test: The material in question is applied topically to the abdomen of 0.5 to 2 hours old pupae of the said specimen, as a solution in acetone. The pupae are held at 27°C and 70% RH, ecdysis occuring 5 to 7 days later. The degree of inhibition of adult characters is refered to an arbitrary scale, a morphologically perfect adult given the character 0%, a perfect second pupa 100%.

[2] = test system: Culex pipiens L.; assay: Culex test: mature larvae, loss of 50% of the test animals; format: in vivo; details: concentration producing a loss of 50% of the test animals, read-out: Culex test IC-50 eclos.
Experimental: Culex test: The compounds were tested on mature larvae of Culex pipiens. (IC-50 eclos.) in ppm.

For `CC(C)=CCCC(C)=CCON=Cc1ccccc1` [Compound 1, Benzaldoxime-0-geranyl ether], the “Tenebrio test ID-50 morph.” value [1] was 0,05 μg/pupa and the LC50 [2] was under 1 µg/mL.
`CC(=CCON=Cc1ccccc1)CCC1OC1(C)C` (stereo not drawn) [Compound 2, Benzaldoxime-O-epoxygeranyl ether] was tested, and the “Tenebrio test ID-50 morph.” value [1] was > 0,1 μg/pupa.
In the case of `CCC(C)=CCCC(=CCON=Cc1ccccc1)CC` [Compound 4, Benzaldoxime-O-(3-ethyl-7-methyl-2,6-nonadiene-1-yl)-ether], the “Tenebrio test ID-50 morph.” value [1] is reported as 0,01 μg/pupa.
In the case of `CC(C)=CCCC(C)=CCON=Cc1ccc2c(c1)OCO2` [Compound 5, Piperonaloxime-O-geranyl ether], the “Tenebrio test ID-50 morph.” value [1] is reported as over 100 μg/pupa and the LC50 [2] is reported as 1 µg/mL (≈ 3.32 µM).
In the case of `CC(C)=CCCC(C)=CCON=Cc1ccc(C)cc1` [Compound 6, p-Tolualdoxime-O-geranyl ether], the “Tenebrio test ID-50 morph.” value [1] is reported as 50 μg/pupa and the LC50 [2] is reported as 10 µg/mL (≈ 36.8 µM).
`CC(C)=CCCC(C)=CCON=Cc1cccnc1` [Compound 7, 3-Pyridinealdoxime-O-geranyl ether] was tested, and the “Tenebrio test ID-50 morph.” value [1] was 10 μg/pupa.
For `CC(C)=CCCC(C)CCON=Cc1ccccc1` (stereo not drawn) [Compound 8, Benzaldoxime-O-citronellyl ether], the “Tenebrio test ID-50 morph.” value [1] was over 100 μg/pupa and the LC50 [2] was under 10 µg/mL.
`CCC(C)=CCON=Cc1ccc2c(c1)OCO2` [Compound 9, Piperonaloxime-O-(3-methyl-2-pentene-1-yl)-ether] was tested, and the “Tenebrio test ID-50 morph.” value [1] was 10 μg/pupa and the LC50 [2] was 0.02 µg/mL (≈ 0.0809 µM).
In the case of `CCC(C)=CCON=Cc1ccccc1` [Compound 10, Benzaldoxime-O-(3-methyl-2-pentene-1-yl)-ether], the “Tenebrio test ID-50 morph.” value [1] is reported as over 100 μg/pupa and the LC50 [2] is reported as 1 µg/mL (≈ 4.92 µM).
With `CCC(C)=CCCON=Cc1ccc2c(c1)OCO2` [Compound 11, Piperonaloxime-O-(4-methyl-3-hexene-1-yl)-ether] the “Tenebrio test ID-50 morph.” value [1] was over 100 μg/pupa and the LC50 [2] was 0.5 µg/mL (≈ 1.91 µM).
For `CCC(C)=CCCON=Cc1ccccc1` [Compound 12, Benzaldoxime-O-(4-methyl-3-hexene-1-yl)-ether], the “Tenebrio test ID-50 morph.” value [1] was over 100 μg/pupa and the LC50 [2] was under 10 µg/mL.
In the case of `CC(C)=CCCC(C)=CCON=CCO` [Compound 13, Glycollicaldoxime-O-geranyl ether], the “Tenebrio test ID-50 morph.” value [1] is reported as 50 μg/pupa and the LC50 [2] is reported as 10 µg/mL (≈ 47.3 µM).
For `CCOC(=O)C=NOCC=C(C)CCC=C(C)C` [Compound 14, Glyoxylic acid ethylester aldoxime-O-geranyl ether], the “Tenebrio test ID-50 morph.” value [1] was 1 μg/pupa and the LC50 [2] was 1 µg/mL (≈ 3.95 µM).
With `CCOC(=O)C=NOCC=C(C)CCC1OC1(C)C` (stereo not drawn) [Compound 15, Glyoxylic acid ethylester aldoxime-O-(epoxygeranyl)-ether] the “Tenebrio test ID-50 morph.” value [1] was 1 μg/pupa and the LC50 [2] was 1 µg/mL (≈ 3.71 µM).
With `CCOC(=O)C=NOCC=C(C)CCCC(C)(C)OCC` [Compound 16, Glyoxylic acid ethylester aldoxime-O-(7-ethoxy-geranyl)-ether] the “Tenebrio test ID-50 morph.” value [1] was 1 μg/pupa and the LC50 [2] was 1 µg/mL (≈ 3.34 µM).
